As usually defined, the IC50 is the concentration that inhibits the measured activity by half.

Data on six compounds can be found in patent US20060229433A1, “Modified antiviral peptides with increased activity and cell membrane affinity” (priority 2003, published 2006).

Bridge positions count the residues as written; N and C are the ends. Square brackets hold non-standard residues; d marks the D form. Peptide text beside a SMILES is read from it. I, II: the chains in the order shown. Ava = NCCCCC(=O)O

The test system of data set [1] is HIV-1 NL 4-3. As to the kind of experiment: Infection of human peripheral blood lymphocytes (PBL) with NL 4-3 strain, p24 ELISA. The class given is cell-based. To be noted: PBL, NL 4-3 strain; Table 4. On the procedure:
Peripheral blood lymphocytes from an HIV-1 negative donor were grown as described earlier, maintained in RPMI 1640 with ultraglutamine, supplemented with IL2 (20 μg/ml), penicillin (100 U/ml), streptomycin (100 μg/ml), and 10% heat-inactivated fetal calf serum. Cells were stimulated three days in the medium supplemented with phytohemagglutinin (20 U/ml PHA P, DIFCO, Detroit Mich.).
Samples of 10^6/100 μL PBL cells were preincubated in 96-well microtiter plates in culture medium containing various concentrations of peptides. After a 1 h treatment at 37° C., 100 μl of diluted viral solution of HIV-1 was added. The cells were exposed to the virus for 1 h at 37° C. at a multiplicity of infection of 1000 TCID50 per ml. The cells were washed three times and cultured at […] of medium with the treatment in 24-well plates incubated at 37° in culture medium with the peptides in 5% CO2. The treatment was permanent before virus adsorption, during virus adsorption and after infection. The PBL culture medium was replaced every 3-4 days during three weeks always in the presence of peptide. The cell viability was assessed by cell counts and trypan-blue exclusion assay. The viral production in the culture supernatant was quantified by p24 ELISA test, as described earlier. All the experiments have been done in blind-tests. Tests have been done in duplicate.
For orientation: In an ELISA, binding on a coated surface is turned into a signal by an enzyme label.

The subject of data set [2] is HIV-1 NL 4-3. The experiment in a line: HIV-1 infection of C8166 cells (syncytia formation, p24 ELISA) with HIV-1 NL 4-3. The class given is cell-based. To be noted: C8166 cells, HIV-1 subtype B NL 4-3; Table 3. Here is the method:
HIV-1 NL 4-3 isolate (Adachi et al., 1986; Barré-Sinoussi et al., 1983) and highly cytopathic Zairian HIV-1 NDK isolate (Ellrodt et al., 1984) was propagated in permissive CEM cells (Nara et al., 1987). Uninfected CEM and C8166 (Salahuddin et al., 1983) were maintained in RPMI 1640 (R10) with ultraglutamine (cambrex, Vervier, Belgium), penicillin (100 U/ml), streptomycin (100 μg/ml), and 10% heat-inactivated fetal calf serum (Cambrex).
(§1) Samples of 3×10^5/100 μL C8166 cells were preincubated in 96-well microtiter plates in culture medium containing various concentrations of peptide. After a 1 h treatment at 37° C., 100 μl of diluted viral solution of HIV-1 was added. The cells were exposed to the virus for 1 h at 37° C. at a multiplicity of infection of 1000 TCID50 per ml. The cells were washed three times and cultured at 3×10^5/ml of R10 with the treatment in 24-well plates incubated at 37° C. C8166 culture medium was replaced at Day-4 post-infection. The treatment was permanent before virus adsorption, during virus adsorption and after infection. Assays on C8166 cells have been performed at least twice and in duplicate. Toxicity was evaluated by daily cell count and trypan-blue exclusion assay. Infection of C8166 T-cells with HIV-1 was assessed by virus-induced cytopathic effects (syncytia formation) and by quantification of cell free p24 viral protein in the culture supernatants. Measurements of HIV-1 p24^gag concentration in the culture supernatants were achieved by ELISA (ALLIANCE® HIV-1 p24 kit, Perkin Elmer, life sciences, USA).

In data set [3] the test system is HIV-1 89.6 subtype B dualtropic (X4R5). To be noted: PBMC, Table 5.
The test system of data set [4] is C8166 cells. As to the kind of experiment: Toxicity on C8166 cells (daily cell count, trypan-blue exclusion). To be noted: at doses up to 10 μM. It counts as cell-based. Here is the method:
as §1

On to `CC(C)C[C@H](NC(=O)[C@@H]1CCCN1C(=O)[C@H](CO)NC(=O)[C@H](Cc1ccc(O)cc1)NC(=O)CNC(=O)[C@H](CCC(N)=O)NC(=O)[C@@H](N)CCCNC(=N)N)C(=O)NCCCC[C@H](NC(=O)[C@H](CC(C)C)NC(=O)[C@@H]1CCCN1C(=O)[C@H](CO)NC(=O)[C@H](Cc1ccc(O)cc1)NC(=O)CNC(=O)[C@H](CCC(N)=O)NC(=O)[C@@H](N)CCCNC(=N)N)C(=O)NCCCCC(=O)O` [RL dimer valeric acid, (RQGYSPL)2-K—NHCH2CH2CH2CH2COOH] (I: H-RQGYSPLK[Ava]-OH / II: H-RQGYSPL; amide I:8-II:C; N-terminus assumed), for which the half-inhibitory concentration (IC50) turned out to be 5 nM in data set [1], 50 nM in data set [2] and 10 nM in data set [3]. Besides, the IC100 was found to be 0.05 µM in data set [1] and 0.5 µM in data set [3].
The corresponding values for `CC(C)C[C@H](NC(=O)[C@@H]1CCCN1C(=O)[C@H](CO)NC(=O)[C@H](Cc1ccc(O)cc1)NC(=O)CNC(=O)[C@H](CCC(N)=O)NC(=O)[C@@H](N)CCCNC(=N)N)C(=O)NCCCCC(=O)O` [RL monomer valeric acid, RQGYSPL-NHCH2CH2CH2CH2COOH] (H-RQGYSPL[Ava]-OH) are 10 nM, 50 nM, 10 nM, 1 µM and 0.1 µM.
For the compound `CC(C)C[C@H](NC(=O)[C@@H]1CCCN1C(=O)[C@H](CO)NC(=O)[C@H](Cc1ccc(O)cc1)NC(=O)CNC(=O)[C@H](CCC(N)=O)NC(=O)[C@@H](N)CCCNC(=N)N)C(=O)NCCCC[C@H](NC(=O)[C@H](CC(C)C)NC(=O)[C@@H]1CCCN1C(=O)[C@H](CO)NC(=O)[C@H](Cc1ccc(O)cc1)NC(=O)CNC(=O)[C@H](CCC(N)=O)NC(=O)[C@@H](N)CCCNC(=N)N)C(=O)NCCCC[C@H](NC(=O)[C@H](CCCCNC(=O)[C@H](CC(C)C)NC(=O)[C@@H]1CCCN1C(=O)[C@H](CO)NC(=O)[C@H](Cc1ccc(O)cc1)NC(=O)CNC(=O)[C@H](CCC(N)=O)NC(=O)[C@@H](N)CCCNC(=N)N)NC(=O)[C@H](CC(C)C)NC(=O)[C@@H]1CCCN1C(=O)[C@H](CO)NC(=O)[C@H](Cc1ccc(O)cc1)NC(=O)CNC(=O)[C@H](CCC(N)=O)NC(=O)[C@@H](N)CCCNC(=N)N)C(=O)NCCCC[C@H](NC(=O)[C@H](CCCCNC(=O)[C@H](CCCCNC(=O)[C@H](CC(C)C)NC(=O)[C@@H]1CCCN1C(=O)[C@H](CO)NC(=O)[C@H](Cc1ccc(O)cc1)NC(=O)CNC(=O)[C@H](CCC(N)=O)NC(=O)[C@@H](N)CCCNC(=N)N)NC(=O)[C@H](CC(C)C)NC(=O)[C@@H]1CCCN1C(=O)[C@H](CO)NC(=O)[C@H](Cc1ccc(O)cc1)NC(=O)CNC(=O)[C@H](CCC(N)=O)NC(=O)[C@@H](N)CCCNC(=N)N)NC(=O)[C@H](CCCCNC(=O)[C@H](CC(C)C)NC(=O)[C@@H]1CCCN1C(=O)[C@H](CO)NC(=O)[C@H](Cc1ccc(O)cc1)NC(=O)CNC(=O)[C@H](CCC(N)=O)NC(=O)[C@@H](N)CCCNC(=N)N)NC(=O)[C@H](CC(C)C)NC(=O)[C@@H]1CCCN1C(=O)[C@H](CO)NC(=O)[C@H](Cc1ccc(O)cc1)NC(=O)CNC(=O)[C@H](CCC(N)=O)NC(=O)[C@@H](N)CCCNC(=N)N)C(=O)NCCC(=O)O` [RL, (RQGYSPL)8-K4-K2-K-βA-OH, reference compound], the 50% inhibitory concentration (IC50) stood at 5 nM in data set [1], 10 nM in data set [2] and 6 nM in data set [3]. Besides, the results for the IC100 in data set [1] and in data set [3] were 0.1 µM and 0.05 µM, respectively.
Consider `C[C@H](NC(=O)[C@H](CCCNC(=N)N)NC(=O)CNC(=O)[C@@H]1CCCN1C(=O)CN)C(=O)N[C@@H](Cc1ccccc1)C(=O)NCCCC[C@H](NC(=O)[C@H](Cc1ccccc1)NC(=O)[C@H](C)NC(=O)[C@H](CCCNC(=N)N)NC(=O)CNC(=O)[C@@H]1CCCN1C(=O)CN)C(=O)NCCCC[C@H](NC(=O)[C@H](CCCCNC(=O)[C@H](Cc1ccccc1)NC(=O)[C@H](C)NC(=O)[C@H](CCCNC(=N)N)NC(=O)CNC(=O)[C@@H]1CCCN1C(=O)CN)NC(=O)[C@H](Cc1ccccc1)NC(=O)[C@H](C)NC(=O)[C@H](CCCNC(=N)N)NC(=O)CNC(=O)[C@@H]1CCCN1C(=O)CN)C(=O)NCCCC[C@H](NC(=O)[C@H](CCCCNC(=O)[C@H](CCCCNC(=O)[C@H](Cc1ccccc1)NC(=O)[C@H](C)NC(=O)[C@H](CCCNC(=N)N)NC(=O)CNC(=O)[C@@H]1CCCN1C(=O)CN)NC(=O)[C@H](Cc1ccccc1)NC(=O)[C@H](C)NC(=O)[C@H](CCCNC(=N)N)NC(=O)CNC(=O)[C@@H]1CCCN1C(=O)CN)NC(=O)[C@H](CCCCNC(=O)[C@H](Cc1ccccc1)NC(=O)[C@H](C)NC(=O)[C@H](CCCNC(=N)N)NC(=O)CNC(=O)[C@@H]1CCCN1C(=O)CN)NC(=O)[C@H](Cc1ccccc1)NC(=O)[C@H](C)NC(=O)[C@H](CCCNC(=N)N)NC(=O)CNC(=O)[C@@H]1CCCN1C(=O)CN)C(=O)NCCCCC(=O)O` [S5, SPC3-(δ-aminovaleric acid)], for which the toxicity on cells entry in data set [4] is “no toxicity”.
`C[C@H](NC(=O)[C@H](CCCNC(=N)N)NC(=O)CNC(=O)[C@@H]1CCCN1C(=O)CN)C(=O)N[C@@H](Cc1ccccc1)C(=O)NCCCC[C@H](NC(=O)[C@H](Cc1ccccc1)NC(=O)[C@H](C)NC(=O)[C@H](CCCNC(=N)N)NC(=O)CNC(=O)[C@@H]1CCCN1C(=O)CN)C(=O)NCCCC[C@H](NC(=O)[C@H](CCCCNC(=O)[C@H](Cc1ccccc1)NC(=O)[C@H](C)NC(=O)[C@H](CCCNC(=N)N)NC(=O)CNC(=O)[C@@H]1CCCN1C(=O)CN)NC(=O)[C@H](Cc1ccccc1)NC(=O)[C@H](C)NC(=O)[C@H](CCCNC(=N)N)NC(=O)CNC(=O)[C@@H]1CCCN1C(=O)CN)C(=O)NCCCC[C@H](NC(=O)[C@H](CCCCNC(=O)[C@H](CCCCNC(=O)[C@H](Cc1ccccc1)NC(=O)[C@H](C)NC(=O)[C@H](CCCNC(=N)N)NC(=O)CNC(=O)[C@@H]1CCCN1C(=O)CN)NC(=O)[C@H](Cc1ccccc1)NC(=O)[C@H](C)NC(=O)[C@H](CCCNC(=N)N)NC(=O)CNC(=O)[C@@H]1CCCN1C(=O)CN)NC(=O)[C@H](CCCCNC(=O)[C@H](Cc1ccccc1)NC(=O)[C@H](C)NC(=O)[C@H](CCCNC(=N)N)NC(=O)CNC(=O)[C@@H]1CCCN1C(=O)CN)NC(=O)[C@H](Cc1ccccc1)NC(=O)[C@H](C)NC(=O)[C@H](CCCNC(=N)N)NC(=O)CNC(=O)[C@@H]1CCCN1C(=O)CN)C(=O)NCCCC(=O)O` [S6, SPC3-(γ-aminobutyric acid)]: the toxicity on cells entry in data set [4] is recorded as “no toxicity”.
For `C[C@H](NC(=O)[C@H](CCCNC(=N)N)NC(=O)CNC(=O)[C@@H]1CCCN1C(=O)CN)C(=O)N[C@@H](Cc1ccccc1)C(=O)NCCCC[C@H](NC(=O)[C@H](Cc1ccccc1)NC(=O)[C@H](C)NC(=O)[C@H](CCCNC(=N)N)NC(=O)CNC(=O)[C@@H]1CCCN1C(=O)CN)C(=O)NCCCCC(=O)O` [SPC3 dimer valeric acid, (GPGRAF)2-K—NHCH2CH2CH2CH2COOH] (I: H-GPGRAFK[Ava]-OH / II: H-GPGRAF; amide I:7-II:C; N-terminus assumed), the IC50 in data set [2] was found to be 50 nM; in data set [3], 8 nM. The IC100 in data set [3] was found to be 0.5 µM.
